Each compound was assayed against recombinant HCV NS5B (HCV RNA-dependent RNA polymerase) (Hepatitis C virus genotype 1b, UniProt P26663) (assay: biochemical). Conditions: HCV polymerase activity, list of compounds of Example 27; read-out: IC50 (polymerase activity).
Sequence of recombinant HCV NS5B (HCV RNA-dependent RNA polymerase) (P26663 2420-3010 limits assumed): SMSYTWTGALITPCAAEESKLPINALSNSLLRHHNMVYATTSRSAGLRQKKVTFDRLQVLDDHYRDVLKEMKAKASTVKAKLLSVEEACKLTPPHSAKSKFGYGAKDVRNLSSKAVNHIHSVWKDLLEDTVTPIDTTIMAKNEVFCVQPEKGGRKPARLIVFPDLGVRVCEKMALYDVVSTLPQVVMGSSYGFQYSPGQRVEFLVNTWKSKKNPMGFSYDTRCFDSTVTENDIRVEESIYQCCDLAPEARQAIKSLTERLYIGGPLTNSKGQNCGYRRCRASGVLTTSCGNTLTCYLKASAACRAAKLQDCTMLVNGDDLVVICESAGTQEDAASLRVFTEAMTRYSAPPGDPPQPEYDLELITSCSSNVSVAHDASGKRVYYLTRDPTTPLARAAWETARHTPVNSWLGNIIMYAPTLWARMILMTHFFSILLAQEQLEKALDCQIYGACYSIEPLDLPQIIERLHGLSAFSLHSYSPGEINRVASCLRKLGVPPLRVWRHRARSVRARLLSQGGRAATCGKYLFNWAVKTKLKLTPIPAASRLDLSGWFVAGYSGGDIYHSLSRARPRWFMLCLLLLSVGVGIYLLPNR

SMILES	IC50 [µM]
CC(C)CC(=O)N(Cc1ccc(C(F)(F)F)cc1)c1cc(-c2ccccc2)sc1C(=O)O [Compound 412, 3-[(3-METHYL-BUTYRYL)-(4- TRIFLUOROMETHYL-BENZYL)-AMINO]-5- PHENYL-THIOPHENE-2-CARBOXYLIC ACID]	5 to 20
O=C(O)c1sc(-c2ccccc2)cc1N(Cc1ccc(C(F)(F)F)cc1)C(=O)C1CC1 [Compound 413, 3-[CYCLOPROPANECARBONYL-(4- TRIFLUOROMETHYL-BENZYL)-AMINO]-5- PHENYL-THIOPHENE-2-CARBOXYLIC ACID]	5 to 20
O=C(O)c1sc(-c2ccccc2)cc1N(Cc1ccc(C(F)(F)F)cc1)C(=O)C1CCC1 [Compound 414, 3-[CYCLOBUTANECARBONYL-(4- TRIFLUOROMETHYL-BENZYL)-AMINO]-5- PHENYL-THIOPHENE-2-CARBOXYLIC ACID]	5 to 20
CCCC(=O)N(Cc1ccc(C(F)(F)F)cc1)c1cc(-c2ccccc2)sc1C(=O)O [Compound 415, 3-[BUTYRYL-(4-TRIFLUOROMETHYL- BENZYL)-AMINO]-5-PHENYL-THIOPHENE- 2-CARBOXYLIC ACID]	5 to 20
O=C(O)c1sc(-c2ccccc2)cc1N(Cc1ccc(C(F)(F)F)cc1)C(=O)CC1CCCC1 [Compound 416, 3-[(2-CYCLOPENTYL-ACETYL)-(4- TRIFLUOROMETHYL-BENZYL)-AMINO]-5- PHENYL-THIOPHENE-2-CARBOXYLIC ACID]	5 to 20
CCC(=O)N(Cc1ccc(C(C)(C)C)cc1)c1cc(-c2ccccc2)sc1C(=O)O [Compound 417, 3-[(4-TERT-BUTYL-BENZYL)-PROPIONYL- AMINO]-5-PHENYL-THIOPHENE-2- CARBOXYLIC ACID]	5 to 20
CCC(=O)N(Cc1ccc([N+](=O)[O-])cc1)c1cc(-c2ccccc2)sc1C(=O)O [Compound 418, 3-[(4-NITRO-BENZYL)-PROPIONYL- AMINO]-5-PHENYL-THIOPHENE-2- CARBOXYLIC ACID]	5 to 20
CC(C)CC(=O)N(Cc1ccc([N+](=O)[O-])cc1)c1cc(-c2ccccc2)sc1C(=O)O [Compound 419, 3-[(3-METHYL-BUTYRYL)-(4-NITRO- BENZYL)-AMINO]-5-PHENYL-THIOPHENE- 2-CARBOXYLIC ACID]	< 5
O=C(O)c1sc(-c2ccccc2)cc1N(Cc1ccc([N+](=O)[O-])cc1)C(=O)C1CC1 [Compound 420, 3-[CYCLOPROPANECARBONYL-(4- NITRO-BENZYL)-AMINO]-5-PHENYL- THIOPHENE-2-CARBOXYLIC ACID]	5 to 20
CC(C)C(=O)N(Cc1ccccc1Cl)c1cc(-c2ccccc2)sc1C(=O)O [Compound 421, 3-[(2-CHLORO-BENZYL)-ISOBUTYRYL- AMINO]-5-PHENYL-THIOPHENE-2- CARBOXYLIC ACID]	5 to 20
CC(C)CC(=O)N(Cc1ccccc1Cl)c1cc(-c2ccccc2)sc1C(=O)O [Compound 422, 3-[(2-CHLORO-BENZYL)-(3-METHYL- BUTYRYL)-AMINO]-5-PHENYL- THIOPHENE-2-CARBOXYLIC ACID]	5 to 20
O=C(O)c1sc(-c2ccccc2)cc1N(Cc1ccccc1Cl)C(=O)C1CC1 [Compound 423, 3-[(2-CHLORO-BENZYL)- CYCLOPROPANECARBONYL-AMINO]-5- PHENYL-THIOPHENE-2-CARBOXYLIC ACID]	> 20
CC(C)N(C(=O)C12CC3CC(CC(C3)C1)C2)c1cc(-c2ccccc2)sc1C(=O)O [Compound 424, 3-[(ADAMANTANE-1-CARBONYL)- ISOPROPYL-AMINO]-5-PHENYL- THIOPHENE-2-CARBOXYLIC ACID]	> 20
O=C(O)c1sc(-c2ccccc2)cc1N(Cc1ccccc1Cl)C(=O)C1CCC1 [Compound 425, 3-[(2-CHLORO-BENZYL)- CYCLOBUTANECARBONYL-AMINO]-5- PHENYL-THIOPHENE-2-CARBOXYLIC ACID]	5 to 20
CC(=O)N(Cc1ccccc1C)c1cc(-c2ccccc2)sc1C(=O)O [Compound 426, 3-[ACETYL-(2-METHYL-BENZYL)-AMINO]- 5-PHENYL-THIOPHENE-2-CARBOXYLIC ACID]	> 20
CCC(=O)N(Cc1ccccc1C)c1cc(-c2ccccc2)sc1C(=O)O [Compound 427, 3-[(2-METHYL-BENZYL)-PROPIONYL- AMINO]-5-PHENYL-THIOPHENE-2- CARBOXYLIC ACID]	5 to 20
Cc1ccc(C(=O)N(c2cc(-c3cccc(C(F)(F)F)c3)sc2C(=O)O)C(C)C)c(O)c1 [Compound 428, 3-[(2-HYDROXY-4-METHYL-BENZOYL)- ISOPROPYL-AMINO]-5-(3- TRIFLUOROMETHYL-PHENYL)- THIOPHENE-2-CARBOXYLIC ACID]	5 to 20
CC(=O)N1CCC(N(C(=O)c2ccc(Cl)cc2Cl)c2cc(-c3ccccc3)sc2C(=O)O)CC1 [Compound 429, 3-[(1-ACETYL-PIPERIDIN-4-YL)-(2,4- DICHLORO-BENZOYL)-AMINO]-5- PHENYL-THIOPHENE-2-CARBOXYLIC ACID]	< 5
CC(C)N(C(=O)c1ccc(Cl)cc1Cl)c1cc(-c2ccc(-c3nnn[nH]3)cc2)sc1C(=O)O [Compound 430, 3-[(2,4-DICHLORO-BENZOYL)- ISOPROPYL-AMINO]-5-[4-(1#H!- TETRAZOL-5-YL)-PHENYL]-THIOPHENE- 2-CARBOXYLIC ACID]	< 5
Cc1ccc(C(=O)N(c2cc(-c3ccccc3)sc2C(=O)O)C(C)C)c(C#N)c1 [Compound 431, 3-[(2-CYANO-4-METHYL-BENZOYL)- ISOPROPYL-AMINO]-5-PHENYL- THIOPHENE-2-CARBOXYLIC ACID]	5 to 20

SMILES	IC50 [µM]
Cc1ccccc1CN(C(=O)C1CCC1)c1cc(-c2ccccc2)sc1C(=O)O [Compound 432, 3-[CYCLOBUTANECARBONYL-(2- METHYL-BENZYL)-AMINO]-5-PHENYL- THIOPHENE-2-CARBOXYLIC ACID]	5 to 20
CCCC(=O)N(Cc1ccccc1C)c1cc(-c2ccccc2)sc1C(=O)O [Compound 433, 3-[BUTYRYL-(2-METHYL-BENZYL)- AMINO]-5-PHENYL-THIOPHENE-2- CARBOXYLIC ACID]	5 to 20
CC(=O)N(Cc1cccc(C)c1)c1cc(-c2ccccc2)sc1C(=O)O [Compound 434, 3-[ACETYL-(3-METHYL-BENZYL)-AMINO]- 5-PHENYL-THIOPHENE-2-CARBOXYLIC ACID]	5 to 20
Cc1ccc(CN(C(=O)C2CCC2)c2cc(-c3ccccc3)sc2C(=O)O)cc1 [Compound 435, 3-[CYCLOBUTANECARBONYL-(4- METHYL-BENZYL)-AMINO]-5-PHENYL- THIOPHENE-2-CARBOXYLIC ACID]	< 5
O=C(O)c1sc(-c2ccccc2)cc1N(Cc1ccc(C(F)(F)F)cc1)C(=O)C1CCCCC1 [Compound 436, 3-[CYCLOHEXANECARBONYL-(4- TRIFLUOROMETHYL-BENZYL)-AMINO]-5- PHENYL-THIOPHENE-2-CARBOXYLIC ACID]	< 5
CC(C)C(=O)N(Cc1ccc(C(C)(C)C)cc1)c1cc(-c2ccccc2)sc1C(=O)O [Compound 437, 3-[(4-TERT-BUTYL-BENZYL)- ISOBUTYRYL-AMINO]-5-PHENYL- THIOPHENE-2-CARBOXYLIC ACID]	5 to 20
CC(C)(C)c1ccc(CN(C(=O)C2CC2)c2cc(-c3ccccc3)sc2C(=O)O)cc1 [Compound 438, 3-[(4-TERT-BUTYL-BENZYL)- CYCLOPROPANECARBONYL-AMINO]-5- PHENYL-THIOPHENE-2-CARBOXYLIC ACID]	5 to 20
CC(C)(C)c1ccc(CN(C(=O)C2CCC2)c2cc(-c3ccccc3)sc2C(=O)O)cc1 [Compound 439, 3-[(4-TERT-BUTYL-BENZYL)- CYCLOBUTANECARBONYL-AMINO]-5- PHENYL-THIOPHENE-2-CARBOXYLIC ACID]	< 5
CCCC(=O)N(Cc1ccc(C(C)(C)C)cc1)c1cc(-c2ccccc2)sc1C(=O)O [Compound 440, 3-[(4-TERT-BUTYL-BENZYL)-BUTYRYL- AMINO]-5-PHENYL-THIOPHENE-2- CARBOXYLIC ACID]	5 to 20
CC(C)(C)c1ccc(CN(C(=O)C2CCCCC2)c2cc(-c3ccccc3)sc2C(=O)O)cc1 [Compound 441, 3-[(4-TERT-BUTYL-BENZYL)- CYCLOHEXANECARBONYL-AMINO]-5- PHENYL-THIOPHENE-2-CARBOXYLIC ACID]	< 5
CC(C)(C)c1ccc(CN(C(=O)CC2CCCC2)c2cc(-c3ccccc3)sc2C(=O)O)cc1 [Compound 442, 3-[(4-TERT-BUTYL-BENZYL)-(2- CYCLOPENTYL-ACETYL)-AMINO]-5- PHENYL-THIOPHENE-2-CARBOXYLIC ACID]	< 5
O=C(O)c1sc(-c2ccccc2)cc1N(Cc1ccc([N+](=O)[O-])cc1)C(=O)CC1CCCC1 [Compound 443, 3-[(2-CYCLOPENTYL-ACETYL)-(4-NITRO- BENZYL)-AMINO]-5-PHENYL-THIOPHENE- 2-CARBOXYLIC ACID]	< 5
O=C(O)c1sc(-c2ccccc2)cc1N(Cc1ccccc1Cl)C(=O)C1CCCCC1 [Compound 444, 3-[(2-CHLORO-BENZYL)- CYCLOHEXANECARBONYL-AMINO]-5- PHENYL-THIOPHENE-2-CARBOXYLIC ACID]	< 5
Cc1cccc(CN(C(=O)CC2CCCC2)c2cc(-c3ccccc3)sc2C(=O)O)c1 [Compound 445, 3-[(2-CYCLOPENTYL-ACETYL)-(3- METHYL-BENZYL)-AMINO]-5-PHENYL- THIOPHENE-2-CARBOXYLIC ACID]	< 5
CCCC(=O)N(Cc1cccc(C)c1)c1cc(-c2ccccc2)sc1C(=O)O [Compound 446, 3-[BUTYRYL-(3-METHYL-BENZYL)- AMINO]-5-PHENYL-THIOPHENE-2- CARBOXYLIC ACID]	5 to 20
CCCC(=O)N(Cc1ccccc1Cl)c1cc(-c2ccccc2)sc1C(=O)O [Compound 447, 3-[BUTYRYL-(2-CHLORO-BENZYL)- AMINO]-5-PHENYL-THIOPHENE-2- CARBOXYLIC ACID]	< 5
Cc1cccc(-c2cc(N(C(=O)C3CCC(C)CC3)C(C)C)c(C(=O)O)s2)c1 (stereo not drawn) [Compound 448, 3-[ISOPROPYL-(4-METHYL- CYCLOHEXANECARBONYL)-AMINO]-5- #M!-TOLYL-THIOPHENE-2-CARBOXYLIC ACID]	< 5
CC(C)N(C(=O)c1ccc(Cl)cc1Cl)c1cc(-c2nccs2)sc1C(=O)O [Compound 449, 3-[(2,4-DICHLORO-BENZOYL)- ISOPROPYL-AMINO]-5-THIAZOL-2-YL- THIOPHENE-2-CARBOXYLIC ACID]	< 5
CC(=O)N(Cc1ccccc1)c1cc(-c2ccccc2)sc1C(=O)O [Compound 450, 3-(ACETYL-BENZYL-AMINO)-5-PHENYL- THIOPHENE-2-CARBOXYLIC ACID]	< 5

— patent publication US6881741B2 (ViroChem Pharma Inc., priority 2001, dated 2005)
